Assay results taken from PMC4128063, “Investigating G protein signalling bias at the glucagon-like peptide-1 receptor in yeast” (British Journal of Pharmacology, 2014).
Where two headings read alike, the source gives them in different places.

Key:
Format in all cases: cell-based
[1] = target: GLP-1 receptor (GPA1/Gαs chimera) (Homo sapiens, UniProt P43220); assay: Yeast growth assay, GPA1/Gαs chimera strain expressing the GLP-1 receptor
[2] = target: GLP-1 receptor (GPA1/Gαi chimera) (Homo sapiens, UniProt P43220); assay: Yeast growth assay, GPA1/Gαi chimera strain expressing the GLP-1 receptor
Chain of GLP-1 receptor (GPA1/Gαi chimera) (P43220 24-463, change not shown): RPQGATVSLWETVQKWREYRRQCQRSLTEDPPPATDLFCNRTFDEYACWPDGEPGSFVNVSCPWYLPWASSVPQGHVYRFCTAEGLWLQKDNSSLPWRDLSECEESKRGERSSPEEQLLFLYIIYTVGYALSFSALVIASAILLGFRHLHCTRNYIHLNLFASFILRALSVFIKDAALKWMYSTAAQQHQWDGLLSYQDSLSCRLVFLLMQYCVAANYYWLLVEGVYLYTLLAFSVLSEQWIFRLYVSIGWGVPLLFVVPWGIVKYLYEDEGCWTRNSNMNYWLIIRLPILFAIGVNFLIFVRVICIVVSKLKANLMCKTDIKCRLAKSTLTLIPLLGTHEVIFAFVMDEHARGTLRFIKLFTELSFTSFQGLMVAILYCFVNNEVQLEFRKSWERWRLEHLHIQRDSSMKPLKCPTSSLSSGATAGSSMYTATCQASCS

GLP-1 receptor = GLP-1 receptor (Homo sapiens, UniProt P43220); assay: G protein signalling bias, GPA1/Gαs versus GPA1/Gαi, yeast assays; details: normalized responses at equivalent ligand concentrations
Chain of GLP-1 receptor (P43220 24-463): as the sequence (P43220 24-463, change not shown) above
Experimental: The strains used contain the HIS3 gene under the control of the pheromone-responsive FUS3 promoter. Receptor agonism induces expression of the reporter gene enabling growth in media lacking histidine (-HIS). […] Initially, cells were grown for 24 h in SD media lacking uracil (-URA) at 30°C to select for only those expressing the receptor. […] Finally, the cultures were diluted in SD-URA-HIS media, supplemented with FDGlu at a final concentration of 20 μM, to an OD600 of 0.02. […] Different concentrations of ligands (0.01 nM–100 mM) were added and yeast growth was measured using either a TECAN Infinite M200 microplate reader (TECAN Ultra Evolution, Reading, UK) or a Mithras LB940 microplate reader (Berthold Technologies, Harpenden, UK) for 20 h.
Data were analysed using Prism 6.0c (Graphpad Software, San Diego, CA, USA). Concentration-response curves were fitted using the three-parameter logistic equation to obtain EC50 and Emax values. […] Statistical differences were analysed using one-way ANOVA with Bonferroni's or Dunnett's multiple comparisons or Student's test as appropriate and a probability (P) < 0.05 was considered significant.

[3] = yeast, 20 h, percentage of the maximum response achieved through activation of GPA1/Gαs, mean ± SEM, n = 5, SEM
[4] = yeast, 20 h, three-parameter logistic fit, mean ± SEM, n = 5, SEM

Chain of GLP-1 receptor (GPA1/Gαs chimera) (P43220 24-463, change not shown): as above

With `CC[S+]([O-])c1nc(-c2cccc(OCc3ccccc3)c2)cc(C(F)(F)F)n1` (centres unmarked) [BETP, 4-(3-benzyloxyphenyl)-2-ethylsulfinyl-6-(trifluoromethyl) pyrimidine] as the molecule, how does the EC50 ([1]; pEC50 (GLP-1 receptor, GPA1/Gαs), non-peptide agonists, yeast, 20 h, three-parameter logistic fit, mean ± SEM, n = 5, SEM) read?
Its EC50 is 7.94 nM.

What about the Emax ([1]; read-out: Emax (GLP-1 receptor, non-peptide agonists), yeast, 20 h, percentage of the maximum response achieved through activation of GPA1/Gαs, mean ± SEM, n = 5, SEM) of the same molecule?
Its Emax is 100 ± 5.1%.

What about the EC50 ([1]; value quoted in running text, read-out: EC50 (yeast, GPA1/Gαs)) of the same molecule?
The EC50 was 10 nM.

And the EC50 ([2]; pEC50 (GLP-1 receptor, GPA1/Gαi), non-peptide agonists, yeast, 20 h, three-parameter logistic fit, mean ± SEM, n = 5, SEM)?
Its EC50 is 15.8 nM.

What about the Emax ([2]; read-out: Emax (GLP-1 receptor, GPA1/Gαi), non-peptide agonists, yeast, 20 h, percentage of the maximum response achieved through activation of GPA1/Gαs, mean ± SEM, n = 5, SEM) of the same molecule?
The Emax was 96.5 ± 4.3%.

And the EC50 ([2]; value quoted in running text, read-out: EC50 (yeast, GPA1/Gαi))?
The EC50 was 15 nM.

What about the “Equimolar bias plot, GPA1/Gαs versus GPA1/Gαi” value (GLP-1 receptor) of the same molecule?
The value was “did not deviate from the no-bias line of unity”.

`CC(C)(C)Nc1nc2cc(Cl)c(Cl)cc2nc1S(C)(=O)=O` [Compound 2, 6,7-dichloro-2-methylsulfonyl-3-N-tert-butylaminoquinoxaline] was tested. Which “Emax (GLP-1 receptor, GPA1/Gαs), non-peptide agonists” value [1, 3] did it give?
Its value is 100 ± 7.3%.

And the “pEC50 (GLP-1 receptor, GPA1/Gαs), non-peptide agonists” value [1, 4]?
Its value is 8.6 ± 0.2.

What about the “Emax (GLP-1 receptor, GPA1/Gαi), non-peptide agonists” value [2, 3] of the same molecule?
Its value is 67.5 ± 7.3 %.

What about the “pEC50 (GLP-1 receptor, GPA1/Gαi), non-peptide agonists” value [2, 4] of the same molecule?
Its value is 8.5 ± 0.3.
